Results reported in patent US8394578B2, “Method of forming resist pattern and negative tone-development resist composition” (Tokyo Ohka Kogyo Co., Ltd., priority 2010, dated 2013).

Assay: Solubility in organic solvent (Test Example 1)
Assay type: physicochemical
Conditions: monomer, stirred for 1 hour; for degree of dissolution in MEK: 1 g added to MEK at 25° C.; for degree of dissolution in PGME: 1 g added to PGME at 25° C.; for degree of dissolution in PGMEA: 1 g added to PGMEA at 25° C.; for degree of dissolution in Butyl acetate: 1 g added to butyl acetate at 25° C.
Source text: Among the monomers used in Polymer Synthesis Examples 1 to 4 and Comparative Polymer Synthesis Examples 1 to 4, with respect to compounds (m0-1) and (m0-2) which are classified as a structural unit (a0), compounds (m2-1) and (m2-2) which are classified as a structural unit (a2), a compound in which the —S(═O)2— portion of the compound (m0-1) has been replaced with —C(═O)— (a compound in which the cyclic group within the compound (m0-1) has been replaced with the cyclic group of the compound (m2-1), hereafter referred to as compound (m2-3)), and polymeric compounds 1, 1′ and 4′, the solubility in an organic solvent was evaluated as follows.
1 g of each compound was added to an organic solvent indicated in Table 1 at 25° C., and stirred for 1 hour. After the stirring, the degree of dissolution of each compound in each organic solvent was evaluated with the following criteria. […]

SMILES: C=C(C)C(=O)OCC(=O)OC1C2CC3C1OS(=O)(=O)C3C2 (stereo not shown) [Compound (m0-1)]
- degree of dissolution in MEK: B (15% by weight or more but less than 40% by weight)
- degree of dissolution in PGME: C (7% by weight or more but less than 15% by weight)
- degree of dissolution in PGMEA: C (7% by weight or more but less than 15% by weight)
- degree of dissolution in Butyl acetate: C (7% by weight or more but less than 15% by weight)

SMILES: C=C(C)C(=O)OC1C2CC3C1OS(=O)(=O)C3C2 (stereo not shown) [Compound (m0-2)]
- degree of dissolution in MEK: B (15% by weight or more but less than 40% by weight)
- degree of dissolution in PGME: C (7% by weight or more but less than 15% by weight)
- degree of dissolution in PGMEA: C (7% by weight or more but less than 15% by weight)
- degree of dissolution in Butyl acetate: D (less than 7% by weight)

SMILES: C=C(C)C(=O)OC1C2CC3C(=O)OC1C3C2 (stereo not shown) [Compound (m2-1)]
- degree of dissolution in MEK: B (15% by weight or more but less than 40% by weight)
- degree of dissolution in PGME: C (7% by weight or more but less than 15% by weight)
- degree of dissolution in PGMEA: B (15% by weight or more but less than 40% by weight)
- degree of dissolution in Butyl acetate: C (7% by weight or more but less than 15% by weight)

SMILES: C=C(C)C(=O)OC1CCOC1=O (stereo not shown) [Compound (m2-2)]
- degree of dissolution in MEK: A (40% by weight or more)
- degree of dissolution in PGME: A (40% by weight or more)
- degree of dissolution in PGMEA: A (40% by weight or more)
- degree of dissolution in Butyl acetate: A (40% by weight or more)
